Experimental data: patent publication US4774381A, “Herbicide resistant tobacco” (E. I. Du Pont de Nemours and Company, priority 1985, dated 1988)

Target: T1, acetolactate synthase (ALS), Isolate 7 (+/+) extract (Nicotiana tabacum, UniProt P09114)
T1 construct: ALS activity was then assayed in extracts prepared from these cell suspension cultures; endogenous in cells; host or cells: N. tabacum cv; Xanthi cell suspension cultures (H1 parental haploid line; +/+ segregants), 0-50% ammonium sulfate fraction of the extract
T1 sequence (P09114 92-664): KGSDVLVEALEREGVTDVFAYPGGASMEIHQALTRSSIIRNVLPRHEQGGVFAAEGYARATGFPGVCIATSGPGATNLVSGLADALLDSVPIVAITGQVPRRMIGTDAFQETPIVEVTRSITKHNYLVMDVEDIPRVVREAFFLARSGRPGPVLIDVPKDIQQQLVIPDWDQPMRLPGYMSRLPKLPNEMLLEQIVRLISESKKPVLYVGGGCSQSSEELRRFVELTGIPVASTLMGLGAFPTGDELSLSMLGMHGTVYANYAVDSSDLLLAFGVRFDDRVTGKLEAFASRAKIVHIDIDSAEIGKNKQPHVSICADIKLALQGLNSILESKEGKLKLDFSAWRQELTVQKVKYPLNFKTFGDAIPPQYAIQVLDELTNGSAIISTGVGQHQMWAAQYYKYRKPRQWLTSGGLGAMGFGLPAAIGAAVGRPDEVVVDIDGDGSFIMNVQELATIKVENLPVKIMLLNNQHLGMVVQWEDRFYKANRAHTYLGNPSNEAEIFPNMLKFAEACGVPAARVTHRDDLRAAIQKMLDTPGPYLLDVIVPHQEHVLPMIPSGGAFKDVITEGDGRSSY
Experiment: ALS activity assay in cell extracts
Format: biochemical
Conditions: read-out: Uninhibited activity (%) in the Presence of Chlorsulfuron
Protocol: Cell suspension cultures of normal (H1) and homozygous mutant (Isolate 16) cell lines were washed in C1 liquid medium. After washing, cells were extracted in a 100 mM potassium phosphate buffer (pH 7.5) containing 0.5 mM MgCl2, 1 mM sodium pyruvate, 0.5 mM thiamine pyrophosphate, 10 micromolar flavine-adenine dinucleotide (FAD) and 10 percent (by volume) glycerol. Polyclar AT (BDH Chemicals Ltd) was added to a final concentration of 250 mg per gram fresh weight of tissue. After centrifugation at 27,000xg for 15 minutes at 4°, an equal volume of a saturated solution of amminium sulfate was added to the supernatant fraction. The resultant precipitate (representing a 0 to 50 percent ammonium sulfate fraction) was redissolved in 100 mM potassium phosphate buffer (pH 7.5) containing 0.5 mM MgCl2, 1 mM sodium pyruvate, and salts were removed by passage through a Sephadex G-25 (Pharmacia PD-10) column.
ALS activity was assayed in a total volume of 500 microliters containing 100 microliters of the column eluate, 65 mM potassium phosphate buffer (pH 7.5) containing 10 mM MgCl2, 40 mM sodium pyruvate, 250 micromolar thiamine pyrophosphate, 23 micromolar FAD, and 1, 5, 10, 50, 100, 500 or 1000 ppb chlorsulfuron or sulfometuron-methyl. […] Acetoin content was then measured by a modification of the procedure described by Westerfield, J. Biol. Chem. 161:495 (1945). […] Tubes were then centrifuged, and the optical density was read at 530 nm. Background optical densities, which were subtracted from the optical density values of the reactions, were determined for each extract from parallel assays to which the enzyme extract was added after the addition of 6N H2 SO4. Protein concentrations were measured with Bio-Rad Protein Assay reagent with bovine serum albumin as a standard. […]
Responses to chlorsulfuron were determined for ALS activities in extracts of cells suspension cultures derived from nine individuals that differed with resepct to the S4 mutation. […] Callus and plant phenotypes were determined by growth responses of cell cultures and seedlings, respectively, on herbicide-supplemented medium. […]

COc1nc(C)nc(NC(=O)NS(=O)(=O)c2ccccc2Cl)n1 [Chlorsulfuron, chlorsulfuron] was tested, and the remaining ALS activity (% of uninhibited) at 0.01 ppm (10 ppb) was 36%, the remaining ALS activity (% of uninhibited) at 0.03 ppm (30 ppb) was 22% and the remaining ALS activity (% of uninhibited) at 0.1 ppm (100 ppb) was 16%.
